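48-hour exposure; five concentrations; linearly interpolated endpoints. Abbreviation: GI50, concentration required for 50% inhibition of growth.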 Activity calls are given as the source filed them. No stated cut-off is given here; in the data, active = GI50 up to about 1.1 µM and inactive = higher.
How the values were obtained:
Assay in all cases: NCI anticancer screen, dose series, 48 h
LOX IMVI = system: LOX IMVI
UACC-62 = system: UACC-62
KM-20L2 = system: KM-20L2
HT-29 = system: HT-29
OVCAR-5 = system: OVCAR-5
TK-10 = system: TK-10
HL-60 = system: HL-60
SW-620 = system: SW-620
SK-MEL-5 = system: SK-MEL-5
SK-MEL-2 = system: SK-MEL-2
NCI-H23 = system: NCI-H23
MOLT-4 = system: MOLT-4
CCRF-CEM = system: CCRF-CEM
NCI-H460 = system: NCI-H460
HCT-116 = system: HCT-116
A498 = system: A498
SK-MEL-28 = system: SK-MEL-28
SNB-75 = system: SNB-75
NCI/ADR-RES = system: NCI/ADR-RES
T47D = system: T47D

Row | Compound | GI50 (LOX IMVI) | GI50 (UACC-62) | GI50 (KM-20L2) | GI50 (HT-29) | GI50 (OVCAR-5) | GI50 (TK-10) | GI50 (HL-60) | GI50 (SW-620) | GI50 (SK-MEL-5) | GI50 (SK-MEL-2) | GI50 (NCI-H23) | GI50 (MOLT-4) | GI50 (CCRF-CEM) | GI50 (NCI-H460) | GI50 (HCT-116) | GI50 (A498) | GI50 (SK-MEL-28) | GI50 (SNB-75) | GI50 (NCI/ADR-RES) | GI50 (T47D)
1 | COC(=O)CCC(=O)C(CC(=O)OC)C(=O)CCC(=O)NCCc1ccccc1 (stereo not given) | > 100 µM (inactive) | > 100 µM (inactive) | > 100 µM (inactive) | > 100 µM (inactive) | > 100 µM (inactive) | > 100 µM (inactive) | > 100 µM (inactive) | > 100 µM (inactive) | > 100 µM (inactive) | > 100 µM (inactive) | > 100 µM (inactive) | > 100 µM (inactive) | > 100 µM (inactive) | > 100 µM (inactive) | > 100 µM (inactive) | > 100 µM (inactive) | > 100 µM (inactive) | > 100 µM (inactive) |  | 
2 | C/C(=N/NS(=O)(=O)c1ccc(C)cc1)c1cccc[n+]1[O-] |  | > 100 µM (inactive) | > 100 µM (inactive) | > 100 µM (inactive) | > 100 µM (inactive) | > 100 µM (inactive) | > 100 µM (inactive) | > 100 µM (inactive) | > 100 µM (inactive) |  | > 100 µM (inactive) | > 100 µM (inactive) | > 100 µM (inactive) | > 100 µM (inactive) | > 100 µM (inactive) | > 100 µM (inactive) | > 100 µM (inactive) | > 100 µM (inactive) |  | 
3 | OC12c3ccccc3C1(N1CCOCC1)CCCCC21OCCCO1 (stereo not given) | > 100 µM (inactive) | > 100 µM (inactive) | > 100 µM (inactive) | > 100 µM (inactive) | > 100 µM (inactive) | > 100 µM (inactive) | > 100 µM (inactive) |  | > 100 µM (inactive) | > 100 µM (inactive) | > 100 µM (inactive) | > 100 µM (inactive) | > 100 µM (inactive) | > 100 µM (inactive) | > 100 µM (inactive) | > 100 µM (inactive) | > 100 µM (inactive) | > 100 µM (inactive) |  | 
4 | CCCCCCCCCCCc1nnc(N)o1 | > 100 µM (inactive) | > 100 µM (inactive) | > 100 µM (inactive) | > 100 µM (inactive) | > 100 µM (inactive) | > 100 µM (inactive) | 37.2 µM (inactive) | > 100 µM (inactive) |  | > 100 µM (inactive) | > 100 µM (inactive) | 26.6 µM (inactive) |  | > 100 µM (inactive) | > 100 µM (inactive) |  | > 100 µM (inactive) | > 100 µM (inactive) |  | 
5 | COc1cc(C(=O)C/C(CCC(=O)Nc2ccccc2[N+](=O)[O-])=N\NC(=O)C(N)=O)ccc1O | > 100 µM (inactive) | > 100 µM (inactive) | > 100 µM (inactive) | > 100 µM (inactive) | > 100 µM (inactive) | > 100 µM (inactive) | > 100 µM (inactive) | > 100 µM (inactive) |  | > 100 µM (inactive) | > 100 µM (inactive) | > 100 µM (inactive) | > 100 µM (inactive) | > 100 µM (inactive) | > 100 µM (inactive) |  | > 100 µM (inactive) |  |  | 
6 | CC1CC#CCOC(=O)CCCC1=O (stereo not given) | > 100 µM (inactive) | > 100 µM (inactive) | > 100 µM (inactive) | > 100 µM (inactive) |  | > 100 µM (inactive) | > 100 µM (inactive) | > 100 µM (inactive) | > 100 µM (inactive) |  | > 100 µM (inactive) | > 100 µM (inactive) | > 100 µM (inactive) | > 100 µM (inactive) | > 100 µM (inactive) |  | > 100 µM (inactive) | > 100 µM (inactive) |  | 
7 | CCn1c(=O)nc2n(-c3ccc(SC)cc3)c3ccccc3nc-2c1=O |  | 50.9 µM (inactive) | 40.5 µM (inactive) |  | > 100 µM (inactive) | > 100 µM (inactive) | 35.7 µM (inactive) | 17.7 µM (inactive) | 9.42 µM (inactive) | > 100 µM (inactive) | > 100 µM (inactive) | > 100 µM (inactive) | > 100 µM (inactive) | 20.9 µM (inactive) |  | > 100 µM (inactive) | > 100 µM (inactive) | 76 µM (inactive) |  | 
8 | O=C(/C(=C\I)c1ccccc1)c1ccccc1 | 12.7 µM (inactive) | 3.26 µM (inactive) |  | 1.93 µM (inactive) | 17.5 µM (inactive) | 16 µM (inactive) | 0.458 µM (active) | 4.57 µM (inactive) | 17.3 µM (inactive) | 7.8 µM (inactive) | 9.89 µM (inactive) | 18.3 µM (inactive) | 14.5 µM (inactive) | 10.9 µM (inactive) | 11.6 µM (inactive) | 16.5 µM (inactive) | 2.16 µM (inactive) | 9.42 µM (inactive) | 19.4 µM (inactive) | 4.14 µM (inactive)

From ChEMBL document CHEMBL1201862, “PubChem BioAssay data set” (2004)
